The source of these data is PubChem BioAssay AID270 (DTP/NCI, 2004).

Structures are written as SMILES. “And” between values parts separate entries of the source, which are not always exact repeats. Equal entries are not always repeated. Inconclusive results are not listed.

The test concerns BDF1 mice, s.c. Lewis lung carcinoma, T/C %. Briefly: NCI In Vivo Anticancer Drug Screen. Data for tumor model Lewis Lung Carcinoma (subcutaneous) in B6D2F1 (BDF1) mice. The essentials: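 Transplanted tumors grown in mice; compound vs vehicle dosing; endpoint survival or tumor size; ratio T/C.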
[1] abbreviates: endpoint: median survival time, dose: 37.5 mg/kg/injection, schedule: Q01DX009 (ip), vehicle: saline with Tween-80, higher = longer survival.
Where [2] appears, read: endpoint: median survival time, dose: 75.0 mg/kg/injection, schedule: Q01DX009 (ip), vehicle: saline with Tween-80, higher = longer survival.
[3] abbreviates: endpoint: median survival time, dose: 150.0 mg/kg/injection, schedule: Q01DX009 (ip), vehicle: saline with Tween-80, higher = longer survival.

In the case of `CN(C)/N=N/c1nc[nH]c1C(N)=O`, the T/C (endpoint: mean tumor weight, dose: 12.5 mg/kg/injection, schedule: Q01DX011 (ip), vehicle: saline, higher = larger tumour) was 76 % of control; the T/C (endpoint: mean tumor weight, dose: 25.0 mg/kg/injection, schedule: Q01DX011 (ip), vehicle: saline, higher = larger tumour) is 108 % of control; the T/C (endpoint: mean tumor weight, dose: 48.0 mg/kg/injection, schedule: Q01DX011 (ip), vehicle: carboxymethylcellulose (CMC), higher = larger tumour) is 111 % of control; the T/C (endpoint: mean tumor weight, dose: 50.0 mg/kg/injection, schedule: Q01DX011 (ip), vehicle: saline, higher = larger tumour) was 80 % of control; the T/C (endpoint: mean tumor weight, dose: 95.0 mg/kg/injection, schedule: Q01DX011 (ip), vehicle: carboxymethylcellulose (CMC), higher = larger tumour) was 117 % of control; the T/C (endpoint: mean tumor weight, dose: 100.0 mg/kg/injection, schedule: Q01DX010 (ip), vehicle: saline, higher = larger tumour) was 44 % of control. The T/C is 42 % of control (endpoint: mean tumor weight, dose: 100.0 mg/kg/injection, schedule: Q01DX011 (ip), vehicle: saline, higher = larger tumour); 78 % of control (endpoint: mean tumor weight, dose: 143.0 mg/kg/injection, schedule: Q01DX011 (ip), vehicle: carboxymethylcellulose (CMC), higher = larger tumour); 51 % of control (endpoint: mean tumor weight, dose: 200.0 mg/kg/injection, schedule: Q01DX010 (ip), vehicle: saline, higher = larger tumour); 94 % of control and 122 % of control (endpoint: median survival time, dose: 27.0 mg/kg/injection, schedule: Q01DX015 (ip), vehicle: carboxymethylcellulose (CMC), higher = longer survival); 97 % of control and 116 % of control (endpoint: median survival time, dose: 37.5 mg/kg/injection, schedule: Q01DX009 (ip), vehicle: Klucel (hydroxypropylcellulose) (HPC), higher = longer survival); 106 % of control and 118 % of control under setting [1]. Also, the T/C was 92 % of control (endpoint: median survival time, dose: 40.0 mg/kg/injection, schedule: Q01DX015 (ip), vehicle: carboxymethylcellulose (CMC), higher = longer survival); 102 % of control (endpoint: median survival time, dose: 60.0 mg/kg/injection, schedule: Q01DX015 (ip), vehicle: carboxymethylcellulose (CMC), higher = longer survival); 110 % of control (endpoint: median survival time, dose: 75.0 mg/kg/injection, schedule: Q01DX009 (ip), vehicle: Klucel (hydroxypropylcellulose) (HPC), higher = longer survival); 118 % of control under setting [2]; 118 % of control (endpoint: median survival time, dose: 100.0 mg/kg/injection, schedule: Q01DX009 (ip), vehicle: saline with Tween-80, higher = longer survival); 122 % of control (endpoint: median survival time, dose: 150.0 mg/kg/injection, schedule: Q01DX009 (ip), vehicle: Klucel (hydroxypropylcellulose) (HPC), higher = longer survival). Further, the T/C is 92 % of control under setting [3]; 113 % of control (endpoint: median survival time, dose: 200.0 mg/kg/injection, schedule: Q01DX009 (ip), vehicle: saline with Tween-80, higher = longer survival); 95 % of control (endpoint: median survival time, dose: 300.0 mg/kg/injection, schedule: Q01DX009 (ip), vehicle: Klucel (hydroxypropylcellulose) (HPC), higher = longer survival); 93 % of control (endpoint: median survival time, dose: 450.0 mg/kg/injection, schedule: Q01DX001 (ip), vehicle: carboxymethylcellulose (CMC), higher = longer survival); 96 % of control (endpoint: median survival time, dose: 670.0 mg/kg/injection, schedule: Q01DX001 (ip), vehicle: carboxymethylcellulose (CMC), higher = longer survival); 102 % of control (endpoint: median tumor weight (est.), dose: 23.7 mg/kg/injection, schedule: Q01DX009 (ip), vehicle: carboxymethylcellulose (CMC), higher = larger tumour). Further, the T/C (endpoint: median tumor weight (est.), dose: 24.0 mg/kg/injection, schedule: Q01DX009 (ip), vehicle: carboxymethylcellulose (CMC), higher = larger tumour) was 74 % of control and 77 % of control; the T/C (endpoint: median tumor weight (est.), dose: 37.5 mg/kg/injection, schedule: Q01DX009 (ip), vehicle: saline with Tween-80, higher = larger tumour) was 90 % of control; the T/C (endpoint: median tumor weight (est.), dose: 47.0 mg/kg/injection, schedule: Q01DX009 (ip), vehicle: carboxymethylcellulose (CMC), higher = larger tumour) is 99 % of control; the T/C (endpoint: median tumor weight (est.), dose: 47.5 mg/kg/injection, schedule: Q01DX009 (ip), vehicle: carboxymethylcellulose (CMC), higher = larger tumour) is 50 % of control; the T/C (endpoint: median tumor weight (est.), dose: 48.0 mg/kg/injection, schedule: Q01DX009 (ip), vehicle: carboxymethylcellulose (CMC), higher = larger tumour) is 70 % of control; the T/C (endpoint: median tumor weight (est.), dose: 75.0 mg/kg/injection, schedule: Q01DX009 (ip), vehicle: saline with Tween-80, higher = larger tumour) was 73 % of control. Further, the T/C (endpoint: median tumor weight (est.), dose: 95.0 mg/kg/injection, schedule: Q01DX009 (ip), vehicle: carboxymethylcellulose (CMC), higher = larger tumour) was 79 % of control and 82 % of control and 99 % of control; the T/C (endpoint: median tumor weight (est.), dose: 150.0 mg/kg/injection, schedule: Q01DX009 (ip), vehicle: saline with Tween-80, higher = larger tumour) was 70 % of control; the T/C (endpoint: median tumor weight (est.), dose: 300.0 mg/kg/injection, schedule: Q01DX009 (ip), vehicle: saline with Tween-80, higher = larger tumour) was 36 % of control.

Take `NC(=S)N/N=C/c1ccc(O)cn1`: the T/C was 94 % of control (endpoint: median survival time, dose: 18.8 mg/kg/injection, schedule: Q01DX009 (ip), vehicle: saline with Tween-80, higher = longer survival); 106 % of control and 119 % of control under setting [1]; 97 % of control under setting [2]; 121 % of control under setting [3].

With `CC(=O)OC/C=C(C)/C=C/C=C(C)/C=C/C1=C(C)CCCC1(C)C`, the T/C (endpoint: median survival time, dose: 200.0 mg/kg/injection, schedule: Q01DX005 (ip), vehicle: saline with Tween-80, higher = longer survival) was 100 % of control.

On to `COc1ccc(-c2oc3ccc(C)cc3c(=O)c2O)cc1`, for which the T/C is, setting by setting: (endpoint: mean tumor weight, dose: 1.9 mg/kg/injection, schedule: Q01DX011 (ip), vehicle: saline, higher = larger tumour) 91 % of control; (endpoint: mean tumor weight, dose: 3.9 mg/kg/injection, schedule: Q01DX011 (ip), vehicle: saline, higher = larger tumour) 100 % of control; (endpoint: mean tumor weight, dose: 7.8 mg/kg/injection, schedule: Q01DX011 (ip), vehicle: saline, higher = larger tumour) 80 % of control; (endpoint: mean tumor weight, dose: 15.6 mg/kg/injection, schedule: Q01DX010 (ip), vehicle: saline, higher = larger tumour) 71 % of control; (endpoint: mean tumor weight, dose: 15.6 mg/kg/injection, schedule: Q01DX011 (ip), vehicle: saline, higher = larger tumour) 67 % of control; (endpoint: mean tumor weight, dose: 31.3 mg/kg/injection, schedule: Q01DX010 (ip), vehicle: saline, higher = larger tumour) 82 % of control. In addition, the T/C was 81 % of control (endpoint: mean tumor weight, dose: 62.5 mg/kg/injection, schedule: Q01DX010 (ip), vehicle: saline, higher = larger tumour) and 84 % of control (endpoint: mean tumor weight, dose: 125.0 mg/kg/injection, schedule: Q01DX010 (ip), vehicle: saline, higher = larger tumour).

As for `Oc1ccc2ccccc2c1N=Nc1ccccc1`, the T/C is, setting by setting: (endpoint: mean tumor weight, dose: 25.0 mg/kg/injection, schedule: Q01DX011 (ip), vehicle: carboxymethylcellulose (CMC), higher = larger tumour) 78 % of control; (endpoint: mean tumor weight, dose: 50.0 mg/kg/injection, schedule: Q01DX011 (ip), vehicle: carboxymethylcellulose (CMC), higher = larger tumour) 75 % of control; (endpoint: mean tumor weight, dose: 100.0 mg/kg/injection, schedule: Q01DX011 (ip), vehicle: carboxymethylcellulose (CMC), higher = larger tumour) 84 % of control; (endpoint: mean tumor weight, dose: 200.0 mg/kg/injection, schedule: Q01DX011 (ip), vehicle: carboxymethylcellulose (CMC), higher = larger tumour) 43 % of control.

On to `[I][Hg][CH2]C1OCCOC1[CH2][Hg][I]` (stereo unspecified), for which the T/C is, setting by setting: (endpoint: mean tumor weight, dose: 18.75 mg/kg/injection, schedule: Q01DX011 (ip), vehicle: saline, higher = larger tumour) 79 % of control; (endpoint: mean tumor weight, dose: 37.5 mg/kg/injection, schedule: Q01DX011 (ip), vehicle: saline, higher = larger tumour) 64 % of control; (endpoint: mean tumor weight, dose: 75.0 mg/kg/injection, schedule: Q01DX011 (ip), vehicle: saline, higher = larger tumour) 54 % of control.

For `O=NN(CCF)C(=O)NC1CCCCC1`, the T/C is, setting by setting: (endpoint: median survival time, dose: 5.0 mg/kg/injection, schedule: Q01DX001 (ip), vehicle: Klucel (hydroxypropylcellulose) (HPC), higher = longer survival) 101 % of control (2×) and 119 % of control; (endpoint: median survival time, dose: 5.1 mg/kg/injection, schedule: Q01DX001 (ip), vehicle: other, higher = longer survival) 96 % of control; (endpoint: median survival time, dose: 10.0 mg/kg/injection, schedule: Q01DX001 (ip), vehicle: Klucel (hydroxypropylcellulose) (HPC), higher = longer survival) 90 % of control and 116 % of control and 119 % of control; (endpoint: median survival time, dose: 10.2 mg/kg/injection, schedule: Q01DX001 (ip), vehicle: other, higher = longer survival) 105 % of control; (endpoint: median survival time, dose: 20.0 mg/kg/injection, schedule: Q01DX001 (ip), vehicle: Klucel (hydroxypropylcellulose) (HPC), higher = longer survival) 101 % of control and 109 % of control and 119 % of control; (endpoint: median survival time, dose: 20.4 mg/kg/injection, schedule: Q01DX001 (ip), vehicle: other, higher = longer survival) 121 % of control. The T/C (endpoint: median survival time, dose: 40.0 mg/kg/injection, schedule: Q01DX001 (ip), vehicle: Klucel (hydroxypropylcellulose) (HPC), higher = longer survival) was 182 % of control.

Consider `CC[C@]1(O)C[C@H]2CN(CCc3c([nH]c4ccccc34)[C@@](C(=O)OC)(c3cc4c(cc3OC)N(C)[C@H]3[C@@](O)(C(=O)OC)[C@H](OC(C)=O)[C@]5(CC)C=CCN6CC[C@]43[C@@H]65)C2)C1`, for which the T/C (endpoint: mean tumor weight, dose: 0.12 mg/kg/injection, schedule: Q01DX011 (ip), vehicle: saline, higher = larger tumour) is 109 % of control; the T/C (endpoint: mean tumor weight, dose: 0.24 mg/kg/injection, schedule: Q01DX011 (ip), vehicle: saline, higher = larger tumour) was 94 % of control; the T/C (endpoint: mean tumor weight, dose: 0.36 mg/kg/injection, schedule: Q01DX011 (ip), vehicle: saline, higher = larger tumour) was 84 % of control; the T/C (endpoint: mean tumor weight, dose: 0.54 mg/kg/injection, schedule: Q01DX011 (ip), vehicle: saline, higher = larger tumour) was 99 % of control; the T/C (endpoint: mean tumor weight, dose: 0.8 mg/kg/injection, schedule: Q01DX011 (ip), vehicle: saline, higher = larger tumour) was 60 % of control; the T/C (endpoint: mean tumor weight, dose: 0.81 mg/kg/injection, schedule: Q01DX011 (ip), vehicle: saline, higher = larger tumour) was 111 % of control. Further, the T/C (endpoint: mean tumor weight, dose: 125.0 micrograms/kg/injection, schedule: Q01DX011 (ip), vehicle: saline, higher = larger tumour) is 61 % of control; the T/C (endpoint: mean tumor weight, dose: 250.0 micrograms/kg/injection, schedule: Q01DX011 (ip), vehicle: saline, higher = larger tumour) is 53 % of control; the T/C (endpoint: median survival time, dose: 0.06 mg/kg/injection, schedule: Q01DX009 (ip), vehicle: saline, higher = longer survival) was 101 % of control and 118 % of control; the T/C (endpoint: median survival time, dose: 0.12 mg/kg/injection, schedule: Q01DX009 (ip), vehicle: saline, higher = longer survival) was 88 % of control; the T/C (endpoint: median survival time, dose: 0.25 mg/kg/injection, schedule: Q01DX009 (ip), vehicle: saline, higher = longer survival) was 96 % of control.
